Test: Incorporation of 13C-labeled dicarboxylic acid anions in metabolic processes, determined by exhalation of 13CO2 in rats
Conditions: aqueous solution by pipette, amount equivalent to 1 mg of acid anion, air collected 12 hours after administration, 13C-labeled compounds
Experimental: The signal incorporation in metabolism was determined by exhalation of the labeled ^13C atom in the form of ^13CO2. The experiment was conducted as follows: aqueous solutions, in the amounts equivalent to 1 mg of the acids anions they contained, were administered to rats (groups of 8 individuals, each rat weighing 225-250 g) with a pipette: amber acid, sodium fumarate (fumaric acid is almost insoluble in water), aspartic acids, Ca(SucH)2, Mg(SucH)2.4H2O, Mg(AspH)2.4H2O, Zn(FumH)2.0.5H2O, Zn(FumH)2.H2O. The animals were then quickly placed in a hermetically sealed chamber. The air from the chamber was sampled in the same amount as it was pumped in the chamber. […] After that, the mass % of 13C administer was calculated in the exhaled air.

SMILES	mass % of 13C administered found in the exhaled air (as 13CO2)
O.O.O.O.O=C([O-])CCC(=O)O.O=C([O-])CCC(=O)O.[Mg+2] [Mg(SucH)2.4H2O, Acidic Magnesium Succinate]	47.7%
O=C([O-])/C=C/C(=O)[O-].[Na+].[Na+] [sodium fumarate, reference compound]	97.8%
N[C@@H](CC(=O)[O-])C(=O)O.N[C@@H](CC(=O)[O-])C(=O)O.O.O.O.O.[Mg+2] [Mg(AspH)2.4H2O, Acidic Magnesium Aspartate]	47.4%

— patent publication US9845284B1, “Method of obtaining complex acidic salts of divalent metals and dicarboxylic acids” (priority 2016, dated 2017)
